Drawing on paper PMC11270687 (ACS Omega, 2024), this text covers Km for 1 molecule.

The experiment relates to PD3. The experiment is classed as biochemical, Brucella anthropi.

As for `CCCC(=O)Oc1ccc([N+](=O)[O-])cc1` [p-nitrophenyl butyrate], the Michaelis-Menten constant (Km) (usually the substrate concentration at which the rate is half of its maximum) amounted to 7.82 mM.
